Measurements: ChEMBL document CHEMBL4043229, “gem-Dithioacetylated indole derivatives as novel antileishmanial agents” (Bioorg Med Chem Lett, 2017)
In brackets after ≈: the same amount, converted by molar mass. Activity calls are given as the source filed them. No cut-off for these calls is given here.

What was measured:
Leishmania donovani [1] = experiment: Anti-leishmanial activity against promastigote stage of Leishmania donovani MHOM/IN/Dd8 harboring luciferase gene at 12.5 ug/ml after 72 hrs by luminescence assay relative to control; type: functional; settings: for inhibition at 12.5 µg/mL: MHOM/IN/Dd8, 72 h
[2] = Cytotoxicity against mouse J774A1 cells after 72 hrs by MTT assay; type: cell-based, J774.A1
Leishmania donovani [3] = experiment: Anti-leishmanial activity against intracellular amastigote stage of Leishmania donovani harboring luciferase gene infected in mouse J774A1 cells at 12.5 ug/ml after 72 hrs by luminescence assay relative to control; type: functional; settings: for inhibition at 12.5 µg/mL: J774.A1, 72 h

Compound | inhibition at 12.5 µg/mL (Leishmania donovani [1]) [%] | CC50 at 72 h [2] [µg/mL] | inhibition at 12.5 µg/mL (Leishmania donovani [3]) [%] | inhibition (Leishmania donovani [1]) | inhibition (Leishmania donovani [3])
CC(=O)SC(SC(C)=O)c1cn(CCCCCCOc2ccc(C#N)cc2)c2ccccc12 | 91.6 | > 100 | 40.2 |  | 
CC(=O)SC(SC(C)=O)c1cn(CCCCCOc2ccc(C#N)cc2)c2ccccc12 | 96 | > 100 | 99.8 |  | 
CCCCn1cc(C(SC(C)=O)SC(C)=O)c2ccccc21 | 74 |  |  |  | 
CC(=O)SC(SC(C)=O)c1cn(CCCCCN2CCN(c3ccccc3)CC2)c2ccccc12 | 60.1 | 13.8 (≈ 27.1 µM) | 86.8 |  | 
CC(=O)SC(SC(C)=O)c1cn(C)c2ccccc12 | 31 |  |  |  | 
CC(=O)SC(SC(C)=O)c1cn(CCCCOc2ccc(C#N)cc2)c2ccccc12 | 90.9 | > 100 | 97.8 |  | 
N#Cc1ccc(OCCCCCn2cc(C=O)c3ccccc32)cc1 |  |  |  | inactive | inactive
